Test results: ChEMBL document CHEMBL1156829 (Proc Natl Acad Sci U S A, 2008)

Columns and labels:
[1] = NOVARTIS: Cytotoxicity against human hepatocellular carcinoma cell line (Huh7); assay type: toxicity, cell-based, Huh-7; settings: Huh7 cells (hepatocellular carcinoma cell line)
Plasmodium falciparum [2] = assay: NOVARTIS: Inhibition of Plasmodium falciparum W2 (drug-resistant) proliferation in erythrocyte-based infection assay; assay type: functional, organism-based; settings: Plasmodium falciparum, W2; read-out: EC50
Plasmodium falciparum [3] = assay: NOVARTIS: Inhibition of Plasmodium falciparum 3D7 (drug-susceptible) proliferation in erythrocyte-based infection assay; assay type: functional, organism-based; settings: Plasmodium falciparum, 3D7

Structure (SMILES)	CC50 [1]	EC50 (Plasmodium falciparum [2])	EC50 (Plasmodium falciparum [3])
Cc1cc(C)cc(-n2c(C)cc(/C=C3\SC(=Nc4ccc(Br)cc4)NC3=O)c2C)c1	> 100 µM	4.45 µM	2.58 µM
COc1ccc(C(OCC(=O)N2CCN(Cc3ccccc3)CC2)c2ccccc2)cn1 (centres undefined)	> 10 µM	0.434 µM	0.604 µM
CCSC1=CC(=O)c2ccccc2C1=O	5.17 µM	0.23 µM	0.551 µM
O=C(O)CCNc1ccccc1[N+](=O)[O-]	> 100 µM	> 4.31 µM	> 8.54 µM
CCNC(=O)/C=C/c1ccc(C(C)(C)C)cc1	> 10 µM	0.441 µM	> 1.1 µM
CCc1ccc(C(=O)N(CC(=O)Nc2cc(C(C)(C)C)nn2-c2ccc(Cl)c(Cl)c2)C(C)C)cc1	87.8 µM	3.86 µM	1.73 µM
CCOC(=O)c1cnc2ccc(Cl)cc2c1Nc1ccc(OC)c(OC)c1	> 100 µM	4.43 µM	2.67 µM
N=c1n(CCN2CCCCC2)c2ccccc2n1CC(O)COc1ccc(Cl)cc1 (centres undefined)	6.27 µM	0.279 µM	0.521 µM
COc1ccccc1N1C(=N)S/C(=C\c2ccc(OCc3ccccc3F)cc2)C1=O	> 10 µM	0.434 µM	0.741 µM
FC(F)(F)c1cccc(Nc2nnnc3ccccc23)c1	> 10 µM	0.433 µM	0.756 µM
COc1ccc(S(=O)(=O)N=C2C=C(Nc3ccc(O)cc3)C(=O)c3ccccc32)cc1	2.45 µM	0.109 µM	0.185 µM
CC1(C)C=C(C23C=CC(C2)C2C(=C4CC(C)(C)NC(C)(C)C4)C=CC23)CC(C)(C)N1 (centres undefined)	44.7 µM	1.97 µM	2.23 µM
CC1(C)CN=C(NCc2ccccc2Cl)S1	34.2 µM	1.48 µM	7.45 µM
CC(=O)N/C(=C\c1ccc(OC(F)F)cc1)C(=O)O	> 10 µM	0.432 µM	> 1.17 µM
N#CC(=CC=Cc1ccc([N+](=O)[O-])o1)c1nc2ccccc2[nH]1	8.69 µM	0.387 µM	0.381 µM
COCCNC(=O)[C@@H]1C[C@@H](NCCC2=C(C)CCCC2(C)C)CN1C(C)C	> 100 µM	4.3 µM	> 12.5 µM
CN(CCCNc1ccnc2cc(Cl)ccc12)S(=O)(=O)c1ccc(Br)cc1	6.88 µM	0.295 µM	0.186 µM
CC(C)(C)c1ccc(C(=O)Nc2ccc(NC(=O)c3ccc(-c4cccc([N+](=O)[O-])c4)o3)cc2)cc1	> 10 µM	> 0.429 µM	> 1.46 µM
COc1ccc(CCNC(=O)CC(=O)NN=Cc2ccc(Br)cc2)cc1OC	> 10 µM	> 0.429 µM	> 1.25 µM
CN(Cc1ccccc1)CC(O)COc1ccc(CNCCCN2CCCC2)cc1 (centres undefined)	59.8 µM	2.56 µM	2.38 µM
Cn1cnc2cc(OC3CCN(Cc4ccco4)CC3)ccc21	> 4.34 µM	0.192 µM	0.216 µM
CCCCN(CC)S(=O)(=O)c1cc(Br)cc2c1N(C(C)=O)CC2	> 10 µM	0.441 µM	1.56 µM
CC(=O)Nc1ccc2nc(C)sc2c1	> 10 µM	> 0.445 µM	> 1.25 µM
Cc1ccccc1C(=O)N1CCC(n2nccc2NC(=O)CCOc2ccccc2)CC1	> 100 µM	4.45 µM	> 12.5 µM
CC(C)N1CCC(N2CCN(Cc3ccc4c(c3)Cc3ccccc3-4)CC2CCO)CC1 (centres undefined)	20.5 µM	0.905 µM	1.54 µM
O=[N+]([O-])c1ccc2nc(Nc3ccccc3)c(Nc3ccccc3)nc2c1	21.7 µM	0.955 µM	0.941 µM
CC(C)CNc1nc(NCCCn2ccnc2)ncc1C(=O)NCc1ccccc1	> 10 µM	0.443 µM	0.257 µM

Structure (SMILES)	CC50 [1]	EC50 (Plasmodium falciparum [2])	EC50 (Plasmodium falciparum [3])
CCOC(=O)C1=C(C)N(c2ccc(OCC)cc2)C(=O)/C1=C\c1ccc(C(C)C)cc1	> 10 µM	0.439 µM	> 1.28 µM
CN(C)c1ccc(C2Nc3ccccc3NC3=C2C(=O)CC(C)(C)C3)cc1 (centres undefined)	> 100 µM	4.39 µM	> 12.5 µM
O=C(C1CCN(C(c2ccc(F)cc2)c2ccc(F)cc2)CC1)N1CCCC1	> 10 µM	0.447 µM	> 0.586 µM
c1csc(CN2CCc3nc(N4CCCCC4)sc3C2)c1	> 10 µM	0.446 µM	1.26 µM
O=C(C=Cc1ccccc1)c1c(-c2ccccc2)c2cc([N+](=O)[O-])ccc2[nH]c1=O	> 100 µM	> 4.46 µM	> 9.37 µM
CCCN1CCC(N2CCCC(c3[nH]ncc3-c3cccc(C(F)(F)F)c3)C2)CC1 (centres undefined)	> 10 µM	0.448 µM	0.757 µM
CCc1ccc(CN2CCC(O)(c3ccc4oc(C(=O)Nc5ccc6c(c5)OCO6)cc4c3)CC2)cc1	10.3 µM	0.46 µM	0.359 µM
O=C(Cn1ccc(=NCc2ccccc2)cc1)c1cccc([N+](=O)[O-])c1	> 10 µM	0.439 µM	0.397 µM
CC(C)N(CC(=O)Nc1cc(C(C)(C)C)nn1-c1ccc(Cl)cc1)C(=O)c1ccc(C(C)(C)C)cc1	> 100 µM	4.48 µM	9.96 µM
CCCCc1nc(CN2CCC3(CC2)C(=O)N(CCc2ccccc2)C(=O)N3C)c[nH]1	> 100 µM	4.38 µM	> 12 µM
CCCN1CCN(CCCNC(=O)c2ccc3c(c2)sc2nc(-c4ccc(OC)cc4)cn23)CC1	> 100 µM	4.38 µM	2.44 µM
CN(C)c1ccc(-c2cc(-c3ccccc3)[s+]c(-c3ccccc3)c2)cc1	1.69 µM	0.0737 µM	0.318 µM
CCOc1cccc2c1N(C(=O)c1cccc([N+](=O)[O-])c1)C(C)(C)C(=S)C2=C1SC(C(=O)OC)=C(C(=O)OC)S1	> 10 µM	0.444 µM	> 1.25 µM
CC(c1nc2ccccc2c(=O)n1-c1ccc(Br)cc1)N1CCN(S(=O)(=O)c2ccc3ccccc3c2)C(C)C1 (centres undefined)	> 10 µM	0.434 µM	> 1.25 µM
OCCNc1nc(Nc2ccc(Cl)cc2)nc2ccccc12	11.6 µM	0.508 µM	0.321 µM
CN(C)CCNc1ncnc2c1[nH]c1ccc(Cl)cc12	20.4 µM	0.886 µM	0.632 µM
CC(C)CC(=O)NCCCCNc1ccnc2cc(Cl)ccc12	> 10 µM	0.43 µM	0.62 µM
Cc1ccc(Cl)cc1Nc1nc2ccccc2n2c(C)nnc12	> 100 µM	4.47 µM	> 12.5 µM
CCN(CC)CCCC(C)Nc1ccnc2cc3ccccc3cc12 (centres undefined)	21.3 µM	0.933 µM	0.0901 µM
COc1ccc(-c2cc(=O)c3c(O)cc(OC4OC(COC5OC(C)C(O)C(O)C5O)C(O)C(O)C4O)cc3o2)cc1 (centres undefined)	> 100 µM	4.42 µM	> 12.5 µM
O=[N+]([O-])c1cccc(C=NNc2nc(NN=Cc3cccc([N+](=O)[O-])c3)nc(Nc3cccc4ccccc34)n2)c1	> 10 µM	0.442 µM	0.509 µM
CC(CC(=O)Oc1ccccc1-c1nc2ccccn2c1NC(C)(C)CC(C)(C)C)CC(C)(C)C (centres undefined)	0.796 µM	0.0342 µM	0.242 µM
CCc1ccc(N(C(=O)CCN2CCc3ccccc32)C(C(=O)NCc2ccccc2)c2ccc(OC)c(OC)c2)cc1 (centres undefined)	> 100 µM	4.45 µM	5.08 µM
CCCCN1Cc2ccc(C(=O)NCCN3CCOCC3)cc2N=C1c1ccc(OC)cc1	> 100 µM	4.41 µM	> 10 µM
Cc1nc2c(C#N)c(C)nn2c(C)c1Cc1cccc(F)c1	> 10 µM	0.444 µM	0.437 µM
CCOC(=O)c1sc(NC(=O)C(C)Sc2nnc(CNC(=O)c3ccc(OC)cc3)n2-c2ccccc2OC)c(C(=O)OCC)c1C (centres undefined)	> 10 µM	0.439 µM	> 1.25 µM
